In patent publication US11993664B2, “Crystalline form of compound and uses thereof in medicine” (priority 2018, dated 2024):
Several values for one entry are separate records, joined by “and”; a condition that tells them apart may be missing. Equal entries are not always repeated. Where two headings read alike, the source gives them in different places.

Assays:
cyclophilin A = cyclophilin A (Homo sapiens, UniProt P62937); settings: background statement; cited from earlier work
[1] = Stress testing under high temperature (60° C.); format: physicochemical; settings: for Change of purity in the high temperature test / Purity: 60° C.
[2] = Stress testing under high photolysis (4500 Lux); format: physicochemical
[3] = set-up: species or system ICR mice; settings: mouse
Protocol: Pharmacokinetic test of compounds in mice (weigh: 20-25 g, male, age: 45-60 days, three members in each oral group and intravenous group) was shown as follows.
(§1) ICR mice received test compounds at a dose of 10 mg/kg by oral gavage or at a dose of 2 mg/kg or 10 mg/kg by tail intravenous injection. Blood samples of orbital vein were taken at 0.083, 0.25, 0.5, 1, 2, 4, 6, 8 and 24 hours after the administration, and collected in anticoagulation tube with EDTA-K2. The test compounds were extracted from plasma samples by liquid-liquid extraction. Then quantitative analysis was performed on a triple-quadrupole tandem mass spectrometer using multiple reaction monitoring (MRM). Pharmacokinetic parameters were calculated using a noncompartmental method by WinNonLin 6.1 software.

[4] = tested on: H77 replicon (genotype 1a); assay: HCV replicon assay, H77 replicon; format: cell-based; settings: Hepatitis C virus
Excerpt: (§2) The purpose of this study was to assess the potential anti-HCV activity of SCY-635 (free base crystalline form A) in the well-characterized genotype-1 replicon. The first reproducible HCV replication system in cell culture (Huh7 hepatoma cell line) was reported in 1999 (Lohmann et al., 1999). The assay utilizes bi-cistronic subgenomic viral RNAs, or replicons, that encode nonstructural proteins and have the cis RNA elements required for autonomous replication. Replicons are self-replicating RNA molecules that contain all of the nucleotide sequences required for HCV replication, transcription, and translation, but are not infectious.
(§3) SCY-635 (free base crystalline form A) was studied in the HCV Replicon assay to evaluate its ability to inhibit HCV genomic replication. […]
(§4) The compound was dissolved in dimethyl sulfoxide (DMSO) and diluted into culture medium at five half-log concentrations, ranging from either 0.02 to 2.0 μM (for SCY-635), or 0.2 to 20 μM (for CsA). […] EC50 and EC90 values were derived from HCV RNA levels assessed as HCV RNA replicon derived LUC activity. […] IC50 and IC90 values were calculated using a colorimetric assay as an indication of cell numbers and cytotoxicity. […]

[5] = monkey, in vivo
[6] = tested on: con 1b derived bi-cistronic replicon; assay: HCV replicon assay, con 1b bi-cistronic replicon; format: cell-based; settings: Hepatitis C virus, LUC endpoint, 72 hours
Excerpt: as §2, §3, §4

[7] = tested on: human hepatoma cell line ET (lub ubi neo/ET); assay: Cytotoxicity in the replicon assay (colorimetric assay of cell numbers); settings: replicon cells, 72 hours
Excerpt: SCY-635 (free base crystalline form A) was examined in the human hepatoma cell line ET (lub ubi neo/ET), an HCV RNA replicon containing a stable luciferase (LUC) reporter. The HCV RNA replicon ET contains the 5′ end of HCV (with the HCV Internal Ribosome Entry Site (IRES) and the first few amino acids of the HCV core protein) which drives the production of a firefly luciferase (LUC), ubiquitin, and neomycin phosphotransferase (NeoR) fusion protein. Ubiquitin cleavage releases the LUC and NeoR proteins. The EMCV IRES element controls the translation of the HCV […] NS3-NS5. The NS3 protein cleaves the HCV polyprotein to release the mature NS3, NS4A, NS4B, NS5A and NS5B proteins that are required for HCV replication. The 3′ end of the replicon contains the authentic 3′ NTR of HCV. […]
as §4

[8] = Heating experiments with HPLC purity of heated samples; format: physicochemical
Protocol: Agilent 1100 HPLC was utilized to measure solubility and purity, method listed in Table 4 and Table 5, respectively. To figure out if a different crystal form of freebase existed at elevated temperature as shown by two endothermic peaks in DSC curve in FIG. 2, heating experiments of the crystalline form A were conducted and HPLC purity of heated samples was also detected. […] Also, lower purity at 150° C. compared with 160° C. was speculated to be related to increasing isothermal time.

[9] = tested on: con 1b derived full length replicon; assay: HCV replicon assay, con 1b full length replicon; format: cell-based; settings: Hepatitis C virus
[10] = set-up: species or system SD rats; settings: rat
Protocol: Pharmacokinetic test of compounds of the invention in SD rats (weigh: 200-250 g, male, age: 2-3 months, three members in each oral group and intravenous group) was shown as follows. Rats received test crystal form A at a dose of 2.5 mg/kg or 5 mg/kg by oral gavage or at a dose of 1 mg/kg by intravenous injection. Blood samples of vein were taken at 0.083, 0.25, 0.5, 1, 2, 5, 7 and 24 hours after the administration, and collected in anticoagulation tube with EDTA-K2. The test compounds were extracted from plasma samples by liquid-liquid extraction. Then quantitative analysis was performed on a triple-quadrupole tandem mass spectrometer using multiple reaction monitoring (MRM). Pharmacokinetic parameters were calculated using a noncompartmental method by WinNonLin 6.3 software.

physchem = format: physicochemical; settings: water, thermodynamic from solid
Protocol: Agilent 1100 HPLC was utilized to measure solubility and purity, method listed in Table 4 and Table 5, respectively.
Solubility of the crystalline form A was estimated in six solvents at RT. Approximately 2 mg of solids were weighed into each 3-mL glass vial, to which each of the solvents in Table 8 was added in increments of 100 μL until the solids dissolved completely or the total volume reached 2 mL.

[11] = in vivo
[12] = set-up: species or system beagle dogs; settings: dog
Protocol: Pharmacokinetic test of compounds in beagle dogs (weigh: 10-12 kg, male, age: 10-12 months, three members in each oral group and intravenous group) was shown as follows.
Beagle dogs received test compounds at a dose of 2.5 mg/kg or 5 mg/kg by oral gavage or at a dose of 1 mg/kg or 2 mg/kg by intravenous injection.
as §1, with “Blood” for “ICR mice received test compounds at a dose of 10 mg/kg by oral gavage or at a dose of 2 mg/kg or 10 mg/kg by tail intravenous injection. Blood”, “of” for “of orbital”, “6.3” for “6.1”

[13] = heated to 150 °C, isothermal 20 min
[14] = heated to 160 °C, isothermal 3 min
[15] = heated to 170 °C, isothermal 2 min
[16] = heated to 180 °C, isothermal 3 min
[17] = day 0, listed as The crystalline form A of SCY-635 free base
[18] = listed as crystalline form A of SCY-635 free base

Chain of cyclophilin A (P62937 whole entry, species assumed): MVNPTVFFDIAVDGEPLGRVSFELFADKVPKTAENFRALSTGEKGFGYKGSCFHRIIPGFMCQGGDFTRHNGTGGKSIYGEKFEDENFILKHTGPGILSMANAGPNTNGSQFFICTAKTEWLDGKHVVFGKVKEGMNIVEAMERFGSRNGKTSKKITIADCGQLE

C/C=C/C[C@@H](C)[C@@H](O)[C@H]1C(=O)N[C@@H](CC)C(=O)N(C)[C@H](SCCN(C)C)C(=O)N(C)[C@@H](CC(C)(C)O)C(=O)N[C@@H](C(C)C)C(=O)N(C)[C@@H](CC(C)C)C(=O)N[C@@H](C)C(=O)N[C@H](C)C(=O)N(C)[C@@H](CC(C)C)C(=O)N(C)[C@@H](CC(C)C)C(=O)N(C)[C@@H](C(C)C)C(=O)N1C [SCY-635]
Concentration inhibiting peptidyl prolyl isomerase (PPlase) catalytic activity (cyclophilin A): low nanomolar

C/C=C/C[C@@H](C)[C@@H](O)[C@H]1C(=O)N[C@@H](CC)C(=O)N(C)[C@H](SCCN(C)C)C(=O)N(C)[C@@H](CC(C)(C)O)C(=O)N[C@@H](C(C)C)C(=O)N(C)[C@@H](CC(C)C)C(=O)N[C@@H](C)C(=O)N[C@H](C)C(=O)N(C)[C@@H](CC(C)C)C(=O)N(C)[C@@H](CC(C)C)C(=O)N(C)[C@@H](C(C)C)C(=O)N1C [The amorphous form of SCY-635 free base]
Change of purity in the high temperature test [1]: continued to decrease
Purity ([1]; day 0): 98.2%
Purity ([1]; day 10): 97.9%
Purity ([1]; day 50): 97.7%
Change of purity in the high photolysis test [2]: continued to decrease
Purity ([2]; day 0): 98.2%
Purity ([2]; day 10): 98.1%
Purity ([2]; day 50): 98.0%

C/C=C/C[C@@H](C)[C@@H](O)[C@H]1C(=O)N[C@@H](CC)C(=O)N(C)[C@H](SCCN(C)C)C(=O)N(C)[C@@H](CC(C)(C)O)C(=O)N[C@@H](C(C)C)C(=O)N(C)[C@@H](CC(C)C)C(=O)N[C@@H](C)C(=O)N[C@H](C)C(=O)N(C)[C@@H](CC(C)C)C(=O)N(C)[C@@H](CC(C)C)C(=O)N(C)[C@@H](C(C)C)C(=O)N1C [SCY-635 free base crystalline form A, (3 S,6S,9S,12R,15S,18S,21S,24S,27R,30S,33S)-27-((2-(dimethylamino)ethyl)thio)-30-ethyl-33-((1R,2R,E)-1-hydroxy-2-methylhex-4-en-1-yl)-24-(2-hydroxy-2-methylpropyl)-6,9,18-triisobutyl-3,21-diisopropyl-1,4,7,10,12,15,19,25,28-nonamethyl-1,4,7,10,13,16,19,22,25,28,31-undecaazacyc lotritriacontan-2,5,8,11,14,17,20,23,26,29,32-undecaone]
Pharmacokinetic properties in vivo [3]: better pharmacokinetic properties
Oral bioavailability ([3]; in vivo, po): orally bioavailable
EC50 [4]: 0.198 µg/mL and 150 nM
EC90 [4]: 1.38 µM and 1.82 µg/mL
Oral bioavailability [5]: orally bioavailable
EC50 [6]: 100 nM and 0.132 µg/mL
EC90 [6]: 350 nM and 0.463 µg/mL
Cell cytotoxicity in the replicon assay [7]: absence of cell cytotoxicity
Appearance [8, 13]: Liquated
Purity [8, 13]: 95.6 Area %
Solid form after heating (XRPD) ([8]; heated to 160° C.): converted to be amorphous
Appearance [8, 14]: Liquated
Purity [8, 14]: 97.6 Area %
Appearance [8, 15]: Liquated
Purity [8, 15]: 94.3 Area %
Appearance [8, 16]: Liquated
Purity [8, 16]: 88.3 Area %
Purity ([8]; starting material, not heated): 100.0 Area %
EC50 [9]: 170 nM and 0.225 µg/mL
EC90 [9]: 690 nM and 0.912 µg/mL
Purity [1, 17]: 98.0%
Purity ([1]; day 10, listed as The crystalline form A of SCY-635 free base): 98.1%
Purity ([1]; day 30): 98.0%
Change of purity in the high temperature test [1, 18]: not changed
Total impurity and major impurities in stress testing ([1]; high temperature and photolysis conditions): did not increase
Pharmacokinetic properties in vivo [10]: better pharmacokinetic properties
Oral bioavailability ([10]; in vivo, po): orally bioavailable
solubility (physchem): < 1100 µg/mL
Oral bioavailability ([11]; human, po): orally bioavailable
Pharmacokinetic behavior [11]: dose-dependent pharmacokinetic behavior
Pharmacokinetic properties in vivo [12]: better pharmacokinetic properties
Oral bioavailability ([12]; in vivo, po): orally bioavailable
Purity [2, 17]: 98.0%
Purity ([2]; day 30): 98.0%
Change of purity in the high photolysis test [2, 18]: not changed
